Reference: ChEMBL document CHEMBL4145670, “A Bioactive Resveratrol Trimer from the Stem Bark of the Sri Lankan Endemic Plant Vateria copallifera” (J Nat Prod, 2018)
Activity calls are given as the source filed them. The calls are words filed in the database; no cut-off is given here.

How the values were obtained:
[1] = test system: HeLa; assay: cells; details: Homo sapiens, 48 h, read-out: GI
Description: Growth inhibition of human HeLa cells at 147.2 uM after 48 hrs by methylene blue staining based assay relative to control

[2] = organism: Homo sapiens; details: 147.2 uM
Description: Inhibition of alpha-chymotrypsin (unknown origin) at 147.2 uM using N-succinyl-L-phenylalanine-p-nitroanilide as substrate pretreated for 25 mins followed by substrate addition relative to control

[3] = test system: HepG2; assay: cells; details: Homo sapiens, HepG2, 48 h, read-out: GI
Description: Growth inhibition of human HepG2 cells at 147.2 uM after 48 hrs by methylene blue staining based assay relative to control

[4] = target: Cholinesterase (Homo sapiens) (UniProt P06276); details: 14.7 uM
Description: Inhibition of BChE (unknown origin) at 14.7 uM using butyrylthiocholine iodide as substrate pretreated for 15 mins followed by substrate addition and measured by DTNB reagent based assay

[5] = test system: MCF7; assay: cells; details: Homo sapiens, MCF7, 48 h, read-out: GI
Description: Growth inhibition of human MCF7 cells at 147.2 uM after 48 hrs by methylene blue staining based assay relative to control

[6] = test system: HCT-116; assay: cells; details: Homo sapiens, HCT-116, 48 h, read-out: GI
Description: Growth inhibition of human HCT116 cells at 147.2 uM after 48 hrs by methylene blue staining based assay relative to control

[7] = test system: SK-MEL-5; assay: cells; details: Homo sapiens, SK-MEL-5, 48 h, read-out: GI
Description: Growth inhibition of human SK-MEL-5 cells at 147.2 uM after 48 hrs by methylene blue staining based assay relative to control

[8] = organism: Homo sapiens; details: 1.5 uM
Description: Inhibition of GST (unknown origin) at 1.5 uM using CDNB as substrate relative to control

[9] = target: Cholinesterase (Homo sapiens) (UniProt P06276); details: 10 ug/ml
Description: Inhibition of BChE (unknown origin) at 10 ug/ml using butyrylthiocholine iodide as substrate pretreated for 15 mins followed by substrate addition and measured by DTNB reagent based assay relative to control

[10] = test system: PC-12; assay: cells; details: Rattus norvegicus, PC-12, 3 h, read-out: Activity
[11] = organism: Homo sapiens; details: 44.1 uM
Description: Inhibition of elastase (unknown origin) at 44.1 uM using N-succinyl-Ala-Ala-Ala-p-nitroanilide as substrate pretreated for 25 mins followed by substrate addition relative to control

Cholinesterase (Homo sapiens), sequence (P06276 whole entry): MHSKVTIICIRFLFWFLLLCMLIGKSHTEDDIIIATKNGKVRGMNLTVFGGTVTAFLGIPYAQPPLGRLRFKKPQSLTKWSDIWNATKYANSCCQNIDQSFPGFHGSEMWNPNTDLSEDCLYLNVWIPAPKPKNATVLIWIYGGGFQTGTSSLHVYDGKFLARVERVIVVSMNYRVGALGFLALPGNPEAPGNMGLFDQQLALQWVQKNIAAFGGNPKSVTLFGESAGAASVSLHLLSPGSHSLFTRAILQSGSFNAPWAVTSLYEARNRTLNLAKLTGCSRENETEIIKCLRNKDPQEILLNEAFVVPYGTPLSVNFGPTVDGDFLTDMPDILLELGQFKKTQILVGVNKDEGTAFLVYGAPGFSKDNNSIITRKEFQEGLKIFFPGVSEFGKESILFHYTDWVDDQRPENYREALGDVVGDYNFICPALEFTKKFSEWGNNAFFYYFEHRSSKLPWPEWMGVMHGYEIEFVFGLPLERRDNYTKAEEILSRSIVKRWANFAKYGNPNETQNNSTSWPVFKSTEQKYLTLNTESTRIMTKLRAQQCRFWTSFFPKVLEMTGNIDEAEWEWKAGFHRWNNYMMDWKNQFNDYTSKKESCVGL

In the case of `Oc1ccc(-c2oc3cc(O)c4c5c3c2-c2cc(O)cc(O)c2[C@H](c2ccc(O)cc2)[C@@H]5[C@H](c2ccc(O)cc2)[C@@H]4c2cc(O)cc(O)c2)cc1`, the inhibition of growth at 147.2 µM [1] is reported as less than 50%, the inhibition [2] is reported as 55.7% and the inhibition of growth at 147.2 µM [3] is reported as less than 50%. The inhibition [4] was “inactive”, the inhibition of growth at 147.2 µM [5] was less than 50% and the inhibition of growth at 147.2 µM [6] was less than 50%. The inhibition of growth at 147.2 µM [7] was less than 50%, the inhibition [8] was 34.7% and the inhibition [9] was 19.7%. For the same compound, the viability at 1.5 µM [10] was 88.3% and the inhibition [11] was 10.2%.
